Experimental data as given in the NIST ThermoML archive (doi:10.1016/j.jct.2015.04.006).

Assay: mn = molality of the nth substance listed, in mol/kg
Settings: 100 kPa, Liquid; for speed of sound: Frequency=3 MHz, Sing-around technique in a fixed-path interferometer; for mass density: Vibrating tube method

CCCCCCCC[N+]1(C)CCOCC1.O=S(=O)([N-]S(=O)(=O)C(F)(F)F)C(F)(F)F + C[S+](C)[O-]
Settings | mass density, 298.15 K [kg/m3] | mass density, 303.15 K [kg/m3] | mass density, 308.15 K [kg/m3] | mass density, 313.15 K [kg/m3] | mass density, 318.15 K [kg/m3] | speed of sound, 298.15 K [m/s] | speed of sound, 303.15 K [m/s] | speed of sound, 308.15 K [m/s] | speed of sound, 313.15 K [m/s] | speed of sound, 318.15 K [m/s]
m1 = 0.0104 | 1096.19 | 1091.17 | 1086.16 | 1081.14 | 1076.13 | 1483.5 | 1466.6 | 1449.8 | 1433 | 1416.5
m1 = 0.01752 | 1096.81 | 1091.79 | 1086.78 | 1081.77 | 1076.76 | 1482.7 | 1465.8 | 1449 | 1432.3 | 1415.8
m1 = 0.0266 | 1097.59 | 1092.58 | 1087.57 | 1082.56 | 1077.56 | 1481.7 | 1464.8 | 1448.1 | 1431.4 | 1414.9
m1 = 0.03779 | 1098.55 | 1093.54 | 1088.53 | 1083.53 | 1078.53 | 1480.5 | 1463.7 | 1446.9 | 1430.2 | 1413.8
m1 = 0.04989 | 1099.57 | 1094.57 | 1089.57 | 1084.57 | 1079.57 | 1479.2 | 1462.4 | 1445.7 | 1429 | 1412.6
m1 = 0.06889 | 1101.17 | 1096.17 | 1091.17 | 1086.18 | 1081.19 | 1477.2 | 1460.4 | 1443.7 | 1427.1 | 1410.8
m1 = 0.08629 | 1102.6 | 1097.62 | 1092.62 | 1087.64 | 1082.65 | 1475.3 | 1458.6 | 1441.9 | 1425.4 | 1409.1
m1 = 0.1068 | 1104.29 | 1099.3 | 1094.32 | 1089.34 | 1084.36 | 1473.2 | 1456.5 | 1439.9 | 1423.4 | 1407.1
m1 = 0.1403 | 1106.96 | 1101.99 | 1097.02 | 1092.04 | 1087.08 | 1469.8 | 1453.1 | 1436.6 | 1420.2 | 1404
m1 = 0.1703 | 1109.31 | 1104.34 | 1099.38 | 1094.41 | 1089.45 | 1466.8 | 1450.2 | 1433.8 | 1417.4 | 1401.2
